The results in this text go back to patent US12129237B2, “Substituted diaminocarboxamide and diaminocarbonitrile pyrimidines, compositions thereof, and methods of treatment therewith” (SIGNAL PHARMACEUTICALS, LLC, priority 2011, dated 2024).

The experiment deals with T1, JNK1 (Homo sapiens, UniProt P45983).
T1 construct: purchased Carna Biosciences
T1 sequence (P45983 whole entry): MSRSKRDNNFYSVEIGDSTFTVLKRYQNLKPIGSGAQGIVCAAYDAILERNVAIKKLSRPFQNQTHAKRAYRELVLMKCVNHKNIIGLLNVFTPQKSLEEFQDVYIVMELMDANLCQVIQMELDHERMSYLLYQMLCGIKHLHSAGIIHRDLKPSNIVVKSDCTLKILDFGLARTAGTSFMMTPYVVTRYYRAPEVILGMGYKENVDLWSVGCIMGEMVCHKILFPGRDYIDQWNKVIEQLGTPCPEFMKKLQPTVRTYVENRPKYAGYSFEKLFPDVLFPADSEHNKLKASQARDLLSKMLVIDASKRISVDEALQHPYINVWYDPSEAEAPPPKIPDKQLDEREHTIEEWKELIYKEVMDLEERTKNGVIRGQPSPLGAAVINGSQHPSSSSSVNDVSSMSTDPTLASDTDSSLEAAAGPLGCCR
Nature of the experiment: JNK1 biochemical assays (one or more of: time resolved fluorescence, Z'-LYTE Cascade, radioactive). As to conditions: tested in one or more of the JNK1 biochemical assays; read-out: Act. Level (JNK1 biochemical assay IC50 activity level).
Consider `CCO[C@H]1CC[C@H](Nc2ncc(C(N)=O)c(N[C@H]3CCCOC3)n2)CC1` [Example A-60, 2-((1r,4S)-4-ethoxycyclohexylamino)-4-((S)-tetrahydro-2H-pyran-3-ylamino)pyrimidine-5-carboxamide], for which the IC50 is below 0.2 µM. For `CCO[C@H]1CC[C@@H](Nc2ncc(C(N)=O)c(N[C@H]3CCC[C@@H]3O)n2)CC1` [Example A-62, 2-((1s,4R)-4-ethoxycyclohexylamino)-4-((1S,2S)-2-hydroxycyclopentylamino)pyrimidine-5-carboxamide] the value was 0.8 to 1 µM; for `CCO[C@H]1CC[C@H](Nc2ncc(C(N)=O)c(N[C@H]3CCC[C@H]3O)n2)CC1` [Example A-63, 2-((1r,4S)-4-ethoxycyclohexylamino)-4-((1S,2R)-2-hydroxycyclopentylamino)pyrimidine-5-carboxamide], 0.2 to 0.8 µM; for `CCO[C@H]1CC[C@H](Nc2ncc(C(N)=O)c(N[C@H]3CCC[C@@H]3O)n2)C1` [Example A-64, 2-((1S,3S)-3-ethoxycyclopentylamino)-4-((1S,2S)-2-hydroxycyclopentylamino)pyrimidine-5-carboxamide], 0.2 to 0.8 µM.

For `CO[C@H]1CC[C@H](Nc2ncc(C(N)=O)c(N[C@@H]3CCC[C@H]3O)n2)CC1` [Example A-65, 4-((1R,2R)-2-hydroxycyclopentylamino)-2-((1r,4R)-4-methoxycyclohexylamino)pyrimidine-5-carboxamide], the IC50 was below 0.2 µM. The figure for `CCO[C@H]1CC[C@H](Nc2ncc(C(N)=O)c(NC3CCC[C@H]3O)n2)CC1` (stereo partly drawn) [Example A-66, 2-((1r,4R)-4-ethoxycyclohexylamino)-4-((1R,2R)-2-hydroxycyclopentylamino)pyrimidine-5-carboxamide] is below 0.2 µM; for `CCO[C@H]1CC[C@H](Nc2ncc(C(N)=O)c(NC[C@@H](C)O)n2)CC1` [Example A-67, 2-((1r,4R)-4-ethoxycyclohexylamino)-4-((R)-2-hydroxypropylamino)pyrimidine-5-carboxamide] it is below 0.2 µM; for `CC(C)CC(=O)N1CCC(Nc2ncc(C(N)=O)c(N[C@H]3C[C@@H](O)C3)n2)CC1` [Example A-68, 4-((1s,3s)-3-hydroxycyclobutylamino)-2-(1-(3-methylbutanoyl)piperidin-4-ylamino)pyrimidine-5-carboxamide] it is below 0.2 µM. For `CO[C@H]1CC[C@H](Nc2ncc(C(N)=O)c(N[C@H]3CC[C@@](C)(O)CC3)n2)CC1` [Example A-69, 4-((1s,4s)-4-hydroxy-4-methylcyclohexylamino)-2-((1r,4r)-4-methoxycyclohexylamino)pyrimidine-5-carboxamide] the value was below 0.2 µM; for `NC(=O)c1cnc(N[C@H]2CC[C@](O)(c3ccccc3)CC2)nc1N[C@H]1CCC[C@@H]1O` [Example A-70, 2-((1s,4R)-4-hydroxy-4-phenylcyclohexylamino)-4-((1S,2S)-2-hydroxycyclopentylamino)pyrimidine-5-carboxamide], 0.2 to 0.8 µM. For `CCO[C@H]1CC[C@H](Nc2ncc(C(N)=O)c(NCCO)n2)CC1` [Example A-71, 2-((1r,4r)-4-ethoxycyclohexylamino)-4-(2-hydroxyethylamino)pyrimidine-5-carboxamide] the value was below 0.2 µM; for `CCO[C@H]1CC[C@H](Nc2ncc(C(N)=O)c(N[C@@H]3CCCOC3)n2)CC1` [Example A-72, 2-((1r,4R)-4-ethoxycyclohexylamino)-4-((R)-tetrahydro-2H-pyran-3-ylamino)pyrimidine-5-carboxamide], below 0.2 µM; for `CCO[C@H]1CCC[C@@H]1Nc1nc(N[C@H]2CC[C@H](OCC)CC2)ncc1C(N)=O` [Example A-73, 2-((1r,4S)-4-ethoxycyclohexylamino)-4-((1S,2S)-2-ethoxycyclopentylamino)pyrimidine-5-carboxamide], below 0.2 µM. Take `CCO[C@H]1C[C@H](Nc2ncc(C(N)=O)c(N[C@H]3CCC[C@@H]3O)n2)C1` [Example A-74, 2-((1r,3S)-3-ethoxycyclobutylamino)-4-((1S,2S)-2-hydroxycyclopentylamino)pyrimidine-5-carboxamide]: the IC50 is 0.2 to 0.8 µM. For `NC(=O)c1cnc(N[C@H]2CC[C@H](OCCF)CC2)nc1N[C@H]1CCC[C@@H]1O` [Example A-75, 2-((1r,4S)-4-(2-fluoroethoxy)cyclohexylamino)-4-((1S,2S)-2-hydroxycyclopentylamino)pyrimidine-5-carboxamide] the value was below 0.2 µM; for `CCO[C@@H]1CC[C@@H](Nc2ncc(C(N)=O)c(N[C@H]3CCC[C@@H]3O)n2)C1` [Example A-76, 2-((1R,3R)-3-ethoxycyclopentylamino)-4-((1S,2S)-2-hydroxycyclopentylamino)pyrimidine-5-carboxamide], 0.2 to 0.8 µM; for `CCO[C@H]1CC[C@H](Nc2ncc(C(N)=O)c(N[C@H]3CCCC[C@@H]3O)n2)CC1` [Example A-77, 2-((1r,4S)-4-ethoxycyclohexylamino)-4-((1S,2S)-2-hydroxycyclohexylamino)pyrimidine-5-carboxamide], below 0.2 µM. With `CO[C@H]1CC[C@H](Nc2ncc(C(N)=O)c(NC3(CO)CCCC3)n2)CC1` [Example A-78, 4-(1-(hydroxymethyl)cyclopentylamino)-2-((1r,4r)-4-methoxycyclohexylamino)pyrimidine-5-carboxamide], the IC50 is below 0.2 µM.

For the molecule `CC1(Nc2nc(N[C@H]3CC[C@H](O)CC3)ncc2C(N)=O)CCOCC1` [Example A-79, 2-((1r,4r)-4-hydroxycyclohexylamino)-4-(4-methyltetrahydro-2H-pyran-4-ylamino)pyrimidine-5-carboxamide], the IC50 was below 0.2 µM. The figure for `CO[C@H]1CC[C@H](Nc2ncc(C(N)=O)c(N[C@H]3CC[C@@H](O)C3)n2)CC1` [Example A-80, 4-((1S,3R)-3-hydroxycyclopentylamino)-2-((1r,4S)-4-methoxycyclohexylamino)pyrimidine-5-carboxamide] is below 0.2 µM. The figure for `CO[C@H]1CC[C@@H](Nc2nc(N[C@H]3CC[C@H](O)C3)ncc2C(N)=O)CC1` [Example A-81, 2-((1S,3S)-3-hydroxycyclopentylamino)-4-((1s,4R)-4-methoxycyclohexylamino)pyrimidine-5-carboxamide] is below 0.2 µM; for `COC[C@H]1CC[C@H](Nc2ncc(C(N)=O)c(NC3CCN(C(C)=O)CC3)n2)CC1` [Example A-82, 4-(1-acetylpiperidin-4-ylamino)-2-((1r,4r)-4-(methoxymethyl)cyclohexylamino)pyrimidine-5-carboxamide] it is 0.2 to 0.8 µM; for `COC[C@H]1CC[C@@H](Nc2nc(NC3CCN(C(C)=O)CC3)ncc2C(N)=O)CC1` [Example A-83, 2-(1-acetylpiperidin-4-ylamino)-4-((1s,4s)-4-(methoxymethyl)cyclohexylamino)pyrimidine-5-carboxamide] it is 0.2 to 0.8 µM. For `COC[C@H]1CC[C@@H](Nc2nc(N[C@@H]3CCN(C(C)=O)C3)ncc2C(N)=O)CC1` [Example A-84, 2-((R)-1-acetylpyrrolidin-3-ylamino)-4-((1s,4S)-4-(methoxymethyl)cyclohexylamino)pyrimidine-5-carboxamide] the value was 0.2 to 0.8 µM; for `COC[C@H]1CC[C@H](Nc2ncc(C(N)=O)c(N[C@H]3CCN(C(C)=O)C3)n2)CC1` [Example A-85, 4-((S)-1-acetylpyrrolidin-3-ylamino)-2-((1r,4S)-4-(methoxymethyl)cyclohexylamino)pyrimidine-5-carboxamide], 0.2 to 0.8 µM.
